{
  "source": "patent US20230201217A1",
  "about": "(priority 2019, published 2023)",
  "key": {"[1]": {"system": "male Sprague Dawley rats", "experiment": "Modified Irwin test, definitive GLP study, male rats", "assay_type": "in vivo, rat", "protocol": "Only male rats were utilized in the assay, as no significant sex-specific effects have been noted in prior toxicology studies.\nThe dose volume for all groups was 20 mL/kg. Observations for the Irwin test were performed pre-dose (on the day of dosing) and at approximately (±5 minutes) 30, 90, 150, and 240 minutes post-dosing. Body temperature was measured and recorded during each Irwin observation period."}, "[2]": {"system": "cynomolgus monkeys", "experiment": "14-day nasogastric gavage GLP toxicity study in cynomolgus monkeys", "assay_type": "in vivo, cynomolgus monkey", "conditions": "for Bone marrow, femur: Depletion, mixed; number with observation / Liver: Hypertrophy, hepatocellular, panlobular; number with observation / Thymus: Depletion, lymphoid, cortex; number with observation: 3 examined", "text": "Assessments of neurobehavioral effects and general toxicity were based on mortality, functional observational battery (FOB) evaluations, clinical observations, body weight, and body temperature; ophthalmoscopic, electrocardiographic examinations; and anatomic and clinical pathology. The anatomical pathology evaluations included histopathology of a full list of tissues from all animals and a comprehensive evaluation of the central nervous system (including selected peripheral nerves) utilizing whole body perfusion and special stains. Bone marrow smears from all animals were evaluated microscopically. Complete differentials and myeloid-erythroid (ME) ratios were performed. Toxicokinetic assessment was conducted for the test article and metabolites."}},
  "note": "Several values for one entry are separate records, joined by “and”; a condition that tells them apart may be missing. Identical values can stand only once.",
  "data": [
    {"smiles": "COCCC1CC2CN3CCc4c([nH]c5ccccc45)C(C(=O)OC)(C2)C13.Cl", "note": "(centres unmarked) [18-MC HCl, 18-Methoxycoronaridine hydrochloride]", "values": [
      {"measurement": "Irwin: Increased pupil diameter, occurrence(s)/No. of males", "setting": "[1]; 200 mg/kg", "result": "1/6"},
      {"measurement": "Irwin: Increased touch response, occurrence(s)/No. of males", "setting": "[1]; 200 mg/kg", "result": "1/6"},
      {"measurement": "mean decrease in body temperature from pre-dose", "setting": "[1]; 200 mg/kg p.o.", "result": "up to 1.5 °C"},
      {"measurement": "Irwin: Abnormal gait (walking low on limbs), occurrence(s)/No. of males", "setting": "[1]; 400 mg/kg", "result": "1/6"},
      {"measurement": "Irwin: Decreased alertness, occurrence(s)/No. of males (observation period, min)", "setting": "[1]; 400 mg/kg", "result": "1/6"},
      {"measurement": "Irwin: Increased pupil diameter, occurrence(s)/No. of males", "setting": "[1]; 400 mg/kg", "result": "1/6"},
      {"measurement": "mean decrease in body temperature from pre-dose", "setting": "[1]; 400 mg/kg p.o.", "result": "≤ 2.3", "unit": "°C"},
      {"measurement": "Irwin: Abnormal gait (walking low on limbs), occurrence(s)/No. of males", "setting": "[1]; 600 mg/kg", "result": "1/6"},
      {"measurement": "Irwin: Diarrhea, occurrence(s)/No. of males", "setting": "[1]; 600 mg/kg", "result": "1/6"},
      {"measurement": "mean decrease in body temperature from pre-dose", "setting": "[1]; 600 mg/kg p.o.", "result": "≤ 2.3", "unit": "°C"},
      {"measurement": "Irwin: Abnormal gait (waddling), occurrence(s)/No. of males (observation period, min)", "setting": "[1]; 600 mg/kg, hydrochloride", "result": "1/6 and 2/6 and 3/6 and 4/6"},
      {"measurement": "HED of well tolerated dose", "setting": "[2]; 50 mg/kg/day", "result": 16, "unit": "mg/kg/day"},
      {"measurement": "Bone marrow, femur: Depletion, mixed, mild; number with observation", "setting": "[2]; 50 mg/kg/day F", "result": 0},
      {"measurement": "Bone marrow, femur: Depletion, mixed, minimal; number with observation", "setting": "[2]; 50 mg/kg/day F", "result": 0},
      {"measurement": "Bone marrow, femur: Depletion, mixed, moderate; number with observation", "setting": "[2]; 50 mg/kg/day F", "result": 0},
      {"measurement": "Bone marrow, rib: Depletion, mixed, mild; number with observation", "setting": "[2]; 50 mg/kg/day F", "result": 0},
      {"measurement": "Bone marrow, rib: Depletion, mixed, minimal; number with observation", "setting": "[2]; 50 mg/kg/day F", "result": 0},
      {"measurement": "Bone marrow, rib: Depletion, mixed, moderate; number with observation", "setting": "[2]; 50 mg/kg/day F", "result": 0},
      {"measurement": "Bone marrow, rib: Depletion, mixed; number with observation", "setting": "[2]; 50 mg/kg/day F", "result": 0},
      {"measurement": "Bone marrow, sternum: Depletion, mixed, mild; number with observation", "setting": "[2]; 50 mg/kg/day F", "result": 0},
      {"measurement": "Bone marrow, sternum: Depletion, mixed, minimal; number with observation", "setting": "[2]; 50 mg/kg/day F", "result": 0},
      {"measurement": "Bone marrow, sternum: Depletion, mixed, moderate; number with observation", "setting": "[2]; 50 mg/kg/day F", "result": 0},
      {"measurement": "Bone marrow, sternum: Depletion, mixed; number with observation", "setting": "[2]; 50 mg/kg/day F", "result": 0},
      {"measurement": "Liver: Hypertrophy, hepatocellular, panlobular, mild; number with observation", "setting": "[2]; 50 mg/kg/day F", "result": 3},
      {"measurement": "Liver: Hypertrophy, hepatocellular, panlobular, minimal; number with observation", "setting": "[2]; 50 mg/kg/day F", "result": 0},
      {"measurement": "Thymus: Depletion lymphoid, generalized, mild; number with observation", "setting": "[2]; 50 mg/kg/day F", "result": 1},
      {"measurement": "Thymus: Depletion lymphoid, generalized, moderate; number with observation", "setting": "[2]; 50 mg/kg/day F", "result": 0},
      {"measurement": "Thymus: Depletion lymphoid, generalized; number with observation", "setting": "[2]; 50 mg/kg/day F", "result": 1},
      {"measurement": "Thymus: Depletion, lymphoid, cortex, mild; number with observation", "setting": "[2]; 50 mg/kg/day F", "result": 0},
      {"measurement": "Thymus: Depletion, lymphoid, cortex, minimal; number with observation", "setting": "[2]; 50 mg/kg/day F", "result": 2},
      {"measurement": "Thymus: Depletion, lymphoid, cortex, moderate; number with observation", "setting": "[2]; 50 mg/kg/day F", "result": 0},
      {"measurement": "mean cumulative body gain (Days 1-14)", "setting": "[2]; 50 mg/kg/day F", "result": -0.08, "unit": "kg"},
      {"measurement": "Bone marrow, femur: Depletion, mixed; number with observation", "setting": "[2]; 50 mg/kg/day F", "result": 0},
      {"measurement": "Liver: Hypertrophy, hepatocellular, panlobular; number with observation", "setting": "[2]; 50 mg/kg/day F", "result": 3},
      {"measurement": "Thymus: Depletion, lymphoid, cortex; number with observation", "setting": "[2]; 50 mg/kg/day F", "result": 2},
      {"measurement": "Bone marrow, femur: Depletion, mixed, mild; number with observation", "setting": "[2]; 50 mg/kg/day M", "result": 0},
      {"measurement": "Bone marrow, femur: Depletion, mixed, minimal; number with observation", "setting": "[2]; 50 mg/kg/day M", "result": 0},
      {"measurement": "Bone marrow, femur: Depletion, mixed, moderate; number with observation", "setting": "[2]; 50 mg/kg/day M", "result": 0},
      {"measurement": "Bone marrow, rib: Depletion, mixed, mild; number with observation", "setting": "[2]; 50 mg/kg/day M", "result": 0},
      {"measurement": "Bone marrow, rib: Depletion, mixed, minimal; number with observation", "setting": "[2]; 50 mg/kg/day M", "result": 0},
      {"measurement": "Bone marrow, rib: Depletion, mixed, moderate; number with observation", "setting": "[2]; 50 mg/kg/day M", "result": 0},
      {"measurement": "Bone marrow, rib: Depletion, mixed; number with observation", "setting": "[2]; 50 mg/kg/day M", "result": 0},
      {"measurement": "Bone marrow, sternum: Depletion, mixed, mild; number with observation", "setting": "[2]; 50 mg/kg/day M", "result": 0},
      {"measurement": "Bone marrow, sternum: Depletion, mixed, minimal; number with observation", "setting": "[2]; 50 mg/kg/day M", "result": 0},
      {"measurement": "Bone marrow, sternum: Depletion, mixed, moderate; number with observation", "setting": "[2]; 50 mg/kg/day M", "result": 0},
      {"measurement": "Bone marrow, sternum: Depletion, mixed; number with observation", "setting": "[2]; 50 mg/kg/day M", "result": 0},
      {"measurement": "Liver: Hypertrophy, hepatocellular, panlobular, mild; number with observation", "setting": "[2]; 50 mg/kg/day M", "result": 0},
      {"measurement": "Liver: Hypertrophy, hepatocellular, panlobular, minimal; number with observation", "setting": "[2]; 50 mg/kg/day M", "result": 0},
      {"measurement": "Thymus: Depletion lymphoid, generalized, mild; number with observation", "setting": "[2]; 50 mg/kg/day M", "result": 0},
      {"measurement": "Thymus: Depletion lymphoid, generalized, moderate; number with observation", "setting": "[2]; 50 mg/kg/day M", "result": 0},
      {"measurement": "Thymus: Depletion lymphoid, generalized; number with observation", "setting": "[2]; 50 mg/kg/day M", "result": 0},
      {"measurement": "Thymus: Depletion, lymphoid, cortex, mild; number with observation", "setting": "[2]; 50 mg/kg/day M", "result": 0},
      {"measurement": "Thymus: Depletion, lymphoid, cortex, minimal; number with observation", "setting": "[2]; 50 mg/kg/day M", "result": 2},
      {"measurement": "Thymus: Depletion, lymphoid, cortex, moderate; number with observation", "setting": "[2]; 50 mg/kg/day M", "result": 0},
      {"measurement": "mean cumulative body gain (Days 1-14)", "setting": "[2]; 50 mg/kg/day M", "result": -0.22, "unit": "kg"},
      {"measurement": "Bone marrow, femur: Depletion, mixed; number with observation", "setting": "[2]; 50 mg/kg/day M", "result": 0},
      {"measurement": "Liver: Hypertrophy, hepatocellular, panlobular; number with observation", "setting": "[2]; 50 mg/kg/day M", "result": 0},
      {"measurement": "Thymus: Depletion, lymphoid, cortex; number with observation", "setting": "[2]; 50 mg/kg/day M", "result": 2},
      {"measurement": "Bone marrow, femur: Depletion, mixed, mild; number with observation", "setting": "[2]; 150 mg/kg/day F", "result": 0},
      {"measurement": "Bone marrow, femur: Depletion, mixed, minimal; number with observation", "setting": "[2]; 150 mg/kg/day F", "result": 0},
      {"measurement": "Bone marrow, femur: Depletion, mixed, moderate; number with observation", "setting": "[2]; 150 mg/kg/day F", "result": 0},
      {"measurement": "Bone marrow, rib: Depletion, mixed, mild; number with observation", "setting": "[2]; 150 mg/kg/day F", "result": 0},
      {"measurement": "Bone marrow, rib: Depletion, mixed, minimal; number with observation", "setting": "[2]; 150 mg/kg/day F", "result": 0},
      {"measurement": "Bone marrow, rib: Depletion, mixed, moderate; number with observation", "setting": "[2]; 150 mg/kg/day F", "result": 0},
      {"measurement": "Bone marrow, rib: Depletion, mixed; number with observation", "setting": "[2]; 150 mg/kg/day F", "result": 0},
      {"measurement": "Bone marrow, sternum: Depletion, mixed, mild; number with observation", "setting": "[2]; 150 mg/kg/day F", "result": 0},
      {"measurement": "Bone marrow, sternum: Depletion, mixed, minimal; number with observation", "setting": "[2]; 150 mg/kg/day F", "result": 0},
      {"measurement": "Bone marrow, sternum: Depletion, mixed, moderate; number with observation", "setting": "[2]; 150 mg/kg/day F", "result": 0},
      {"measurement": "Bone marrow, sternum: Depletion, mixed; number with observation", "setting": "[2]; 150 mg/kg/day F", "result": 0},
      {"measurement": "Liver: Hypertrophy, hepatocellular, panlobular, mild; number with observation", "setting": "[2]; 150 mg/kg/day F", "result": 2},
      {"measurement": "Liver: Hypertrophy, hepatocellular, panlobular, minimal; number with observation", "setting": "[2]; 150 mg/kg/day F", "result": 1},
      {"measurement": "Thymus: Depletion lymphoid, generalized, mild; number with observation", "setting": "[2]; 150 mg/kg/day F", "result": 0},
      {"measurement": "Thymus: Depletion lymphoid, generalized, moderate; number with observation", "setting": "[2]; 150 mg/kg/day F", "result": 0},
      {"measurement": "Thymus: Depletion lymphoid, generalized; number with observation", "setting": "[2]; 150 mg/kg/day F", "result": 0},
      {"measurement": "Thymus: Depletion, lymphoid, cortex, mild; number with observation", "setting": "[2]; 150 mg/kg/day F", "result": 2},
      {"measurement": "Thymus: Depletion, lymphoid, cortex, minimal; number with observation", "setting": "[2]; 150 mg/kg/day F", "result": 0},
      {"measurement": "Thymus: Depletion, lymphoid, cortex, moderate; number with observation", "setting": "[2]; 150 mg/kg/day F", "result": 1},
      {"measurement": "mean cumulative body gain (Days 1-14)", "setting": "[2]; 150 mg/kg/day F", "result": -0.12, "unit": "kg"},
      {"measurement": "Bone marrow, femur: Depletion, mixed; number with observation", "setting": "[2]; 150 mg/kg/day F", "result": 0},
      {"measurement": "Liver: Hypertrophy, hepatocellular, panlobular; number with observation", "setting": "[2]; 150 mg/kg/day F", "result": 3}
    ]}
  ]
}
